The assay deals with L6 cells. The experiment in a line: AlamarBlue in vitro compound toxicity in L6 cells. It counts as cell-based, rat. Particulars: upper bound of TI over T. copemani G1, G2 and T. cruzi.

Some results are limits rather than exact numbers.

On to `CCCCCCCCCCCCCCCCOP(=O)([O-])OCC[N+](C)(C)C` [Miltefosine, hexadecylphosphocholine], for which the “Therapeutic index (TI), in general over all trypanosomes tested” value is recorded as under 2.4.

As to `Nc1nc(N)nc(Nc2ccc([As]3SCC(CO)S3)cc2)n1` (centres unmarked) [Melarsoprol, (2-(4-(4,6-diamino-1,3,5-triazin-2-ylamino)phenyl)-1,3,2-dithiarsolan-4-yl)methanol], the “Therapeutic index (TI), in general over all trypanosomes tested” value is under 12.1.

The values are drawn from PMC5219620 (International Journal for Parasitology: Drugs and Drug …, 2016).
